The structures appear in SMILES notation.

Sequence of GCN2 kinase (Q9P2K8 whole entry): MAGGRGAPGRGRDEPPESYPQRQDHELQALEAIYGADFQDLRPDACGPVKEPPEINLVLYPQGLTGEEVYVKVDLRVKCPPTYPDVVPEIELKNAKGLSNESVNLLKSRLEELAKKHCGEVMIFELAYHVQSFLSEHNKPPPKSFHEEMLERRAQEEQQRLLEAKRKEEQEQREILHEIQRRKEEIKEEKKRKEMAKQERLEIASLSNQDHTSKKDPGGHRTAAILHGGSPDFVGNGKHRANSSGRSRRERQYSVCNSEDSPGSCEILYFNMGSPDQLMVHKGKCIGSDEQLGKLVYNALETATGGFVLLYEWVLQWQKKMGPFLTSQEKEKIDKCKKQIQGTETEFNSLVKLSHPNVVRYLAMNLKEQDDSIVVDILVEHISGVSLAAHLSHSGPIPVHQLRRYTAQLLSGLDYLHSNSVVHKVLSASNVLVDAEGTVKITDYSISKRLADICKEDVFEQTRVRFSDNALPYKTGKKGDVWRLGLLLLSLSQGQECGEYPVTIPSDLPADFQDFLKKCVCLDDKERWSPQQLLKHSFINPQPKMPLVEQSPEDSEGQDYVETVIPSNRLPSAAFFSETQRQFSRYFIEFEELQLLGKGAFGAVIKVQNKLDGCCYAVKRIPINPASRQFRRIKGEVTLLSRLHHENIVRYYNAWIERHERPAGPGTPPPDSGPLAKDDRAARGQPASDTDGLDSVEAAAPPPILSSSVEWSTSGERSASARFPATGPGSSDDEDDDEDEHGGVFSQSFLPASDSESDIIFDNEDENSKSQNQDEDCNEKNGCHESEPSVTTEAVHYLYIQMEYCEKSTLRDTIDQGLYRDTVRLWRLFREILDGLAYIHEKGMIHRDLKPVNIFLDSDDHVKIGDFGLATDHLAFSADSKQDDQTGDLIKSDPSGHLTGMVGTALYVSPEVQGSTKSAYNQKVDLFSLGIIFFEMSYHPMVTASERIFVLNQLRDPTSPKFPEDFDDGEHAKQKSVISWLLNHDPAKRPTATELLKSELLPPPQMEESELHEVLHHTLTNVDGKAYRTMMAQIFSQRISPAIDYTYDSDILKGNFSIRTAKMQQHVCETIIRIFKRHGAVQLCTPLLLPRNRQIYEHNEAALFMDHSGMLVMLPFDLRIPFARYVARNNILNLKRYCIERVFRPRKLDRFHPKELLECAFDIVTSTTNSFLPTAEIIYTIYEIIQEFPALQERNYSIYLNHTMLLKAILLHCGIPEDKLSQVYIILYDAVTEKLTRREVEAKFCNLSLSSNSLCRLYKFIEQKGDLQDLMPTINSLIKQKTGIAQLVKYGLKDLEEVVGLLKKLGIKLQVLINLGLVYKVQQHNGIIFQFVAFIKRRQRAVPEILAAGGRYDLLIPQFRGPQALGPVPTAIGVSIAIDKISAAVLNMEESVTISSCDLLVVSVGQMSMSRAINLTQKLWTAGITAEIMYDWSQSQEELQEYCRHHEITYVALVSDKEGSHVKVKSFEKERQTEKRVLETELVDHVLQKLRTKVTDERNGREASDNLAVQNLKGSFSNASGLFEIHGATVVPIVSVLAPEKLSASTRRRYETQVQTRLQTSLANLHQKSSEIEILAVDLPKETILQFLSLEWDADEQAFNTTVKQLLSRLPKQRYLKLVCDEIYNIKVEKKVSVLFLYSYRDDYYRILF

The first test has as its target GCN2 kinase (Homo sapiens, UniProt Q9P2K8). In words: GCN2 enzyme inhibition assay (Transcreener ADP2 fluorescence polarization). It counts as biochemical. The note with it: Enzyme activity for compounds of Formula IV; Ki(app), 280 μM ATP, 25° C. The procedure, abridged: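 Inhibition of 4 nM GCN2 was measured with compound up to 8 μM final, ATP 280 μM and (RS)7 peptide 200 μM over a 1 h, 25 °C reaction. ADP FP readout; IC50 and Ki(app) calculated from percent inhibition.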
The molecule `C[C@@H]1CN(c2ccnc(-c3cnc4cnc(C(F)(F)F)cn34)n2)C[C@@H](c2c[nH]cn2)O1` (racemic) [IV-381, Trans-2-(1H-Imidazol-4-yl)-6-methyl-4-(2-(6-(trifluoromethyl)imidazo[1,2-a]pyrazin-3-yl)pyrimidin-4-yl)morpholine] displayed a Ki of 10 to 100 nM.

The molecule `FC(F)(F)c1cn2c(-c3nccc(N4CC5CCOC5C4)n3)cnc2cn1` (centres unmarked) [IV-497, 5-(2-(6-(Trifluoromethyl)imidazo[1,2-a]pyrazin-3-yl)pyrimidin-4-yl)hexahydro-2H-furo[2,3-a]pyrrole] displayed a Ki of 100 to 1000 nM.

On to `Cn1ccc2cc(-c3ccnc(-c4cnc5cnc(C(F)F)cn45)n3)ccc21` [IV-158, 6-(Difluoromethyl)-3-(4-(1-methyl-1H-indol-5-yl)pyrimidin-2-yl)imidazo[1,2-a]pyrazine], for which the Ki is 100 to 1000 nM.

Molecule `NC(=O)CC1CCN(c2ccnc(-c3cnc4cnc(C(F)(F)F)cn34)n2)CC1` [IV-605, 2-(1-(2-(6-(Trifluoromethyl)imidazo[1,2-a]pyrazin-3-yl)pyrimidin-4-yl)piperidin-4-yl)acetamide] displayed a Ki of 100 to 1000 nM.

Take `CS(=O)(=O)N1CCN(c2cccc(-c3ccnc(-c4cnc5cnc(C(F)F)cn45)n3)n2)CC1` [IV-151, 6-(Difluoromethyl)-3-(4-(6-(4-(methylsulfonyl)piperazin-1-yl)pyridin-2-yl)pyrimidin-2-yl)imidazo[1,2-a]pyrazine]: the Ki was in the range of 100 to 1000 nM.

For the molecule `O=CNC1CCCN(c2ccnc(-c3cnc4cnc(C(F)(F)F)cn34)n2)C1` (centres unmarked) [IV-332, N-(1-(2-(6-(trifluoromethyl)imidazo[1,2-a]pyrazin-3-yl)pyrimidin-4-yl)piperidin-3-yl)formamide], the Ki lay in the range of 100 to 1000 nM.

For the molecule `C[S+]([O-])CC1CCN(c2ccnc(-c3cnc4cnc(C(F)(F)F)cn34)n2)C1` (centres unmarked) [IV-603, 3-(4-(3-((Methylsulfinyl)methyl)pyrrolidin-1-yl)pyrimidin-2-yl)-6-(trifluoromethyl)imidazo[1,2-a]pyrazine], the Ki lay in the range of 100 to 1000 nM.

Molecule `CC1(C)CN(c2ccnc(-c3cnc4cnc(C(F)(F)F)cn34)n2)CC(c2cn[nH]c2)N1` (centres unmarked) [IV-327, 3-(4-(3,3-Dimethyl-5-(1H-pyrazol-4-yl)piperazin-1-yl)pyrimidin-2-yl)-6-(trifluoromethyl)imidazo[1,2-a]pyrazine] displayed a Ki of 10 to 100 nM.

Turning to `CC(C)(O)C1CCN(c2cccc(-c3cnc4cnc(C(N)=O)cn34)n2)CC1` [IV-226, 3-(6-(4-(2-Hydroxypropan-2-yl)piperidin-1-yl)pyridin-2-yl)imidazo[1,2-a]pyrazine-6-carboxamide], the Ki fell in the range of 10 to 100 nM.

For `OCCn1cc(-c2ccnc(-c3cnc4cnc(C(F)(F)F)cn34)n2)cn1` [IV-431, 2-(4-(2-(6-(Trifluoromethyl)imidazo[1,2-a]pyrazin-3-yl)pyrimidin-4-yl)-1H-pyrazol-1-yl)ethan-1-ol], the Ki is 100 to 1000 nM.

As to `CC(C)(C)C1OCN2CCN(c3ccnc(-c4cnc5cnc(C(F)(F)F)cn45)n3)CC12` (centres unmarked) [IV-506, 1-(tert-Butyl)-7-(2-(6-(trifluoromethyl)imidazo[1,2-a]pyrazin-3-yl)pyrimidin-4-yl)hexahydro-3H-oxazolo[3,4-a]pyrazine], the Ki is 100 to 1000 nM.

`CN1CCN(c2cccc(-c3cnc4cnc(C(N)=O)cn34)n2)CC1` [IV-212, 3-(6-(4-Methylpiperazin-1-yl)pyridin-2-yl)imidazo[1,2-a]pyrazine-6-carboxamide] registered a Ki of 100 to 1000 nM.

Molecule `FC(F)(F)c1cn2c(-c3ccnc(N4CCOC(c5cn[nH]c5)C4)n3)cnc2cn1` (single isomer, unassigned) [IV-186, 2-(1H-Pyrazol-4-yl)-4-(4-(6-(trifluoromethyl)imidazo[1,2-a]pyrazin-3-yl)pyrimidin-2-yl)morpholine] gave a Ki of less than 10 nM.

The molecule `CC(C)C1CN(c2ccnc(-c3cnc4cnc(C(F)(F)F)cn34)n2)C(C)C(c2cn[nH]c2)N1` (centres unmarked) [IV-330, 3-(4-(5-Isopropyl-2-methyl-3-(1H-pyrazol-4-yl)piperazin-1-yl)pyrimidin-2-yl)-6-(trifluoromethyl)imidazo[1,2-a]pyrazine] displayed a Ki of 10 to 100 nM.

In turn, `COCC1CCN(c2ccnc(-c3cnc4cnc(C(F)(F)F)cn34)n2)CC1` [IV-512, 3-(4-(4-(Methoxymethyl)piperidin-1-yl)pyrimidin-2-yl)-6-(trifluoromethyl)imidazo[1,2-a]pyrazine] registered a Ki of 100 to 1000 nM.

In turn, `CCN1CCN(c2ccnc(-c3cnc4cnc(Br)cn34)n2)[C@@H](C)[C@H]1c1cn[nH]c1` (relative stereo) [IV-390, Cis-6-Bromo-3-(4-(4-ethyl-2-methyl-3-(1H-pyrazol-4-yl)piperazin-1-yl)pyrimidin-2-yl)imidazo[1,2-a]pyrazine] returned a Ki of less than 10 nM.

`Fc1n[nH]cc1C1CCCN(c2ccnc(-c3cnc4cnc(C(F)(F)F)cn34)n2)C1` (centres unmarked) [IV-473, 3-(4-(3-(5-Fluoro-1H-pyrazol-4-yl)piperidin-1-yl)pyrimidin-2-yl)-6-(trifluoromethyl)imidazo[1,2-a]pyrazine] yielded a Ki of less than 10 nM.

In turn, `CC1C(c2cn[nH]c2)OCCN1c1nccc(-c2cnc3cnc(C(F)(F)F)cn23)n1` (centres unmarked) [IV-417, 3-Methyl-2-(1H-pyrazol-4-yl)-4-(4-(6-(trifluoromethyl)imidazo[1,2-a]pyrazin-3-yl)pyrimidin-2-yl)morpholine] came in with a Ki of less than 10 nM.

For `CC1CN(c2nccc(-c3cnc4cnc(Br)cn34)n2)C(C)C(c2cn[nH]c2)N1` (centres unmarked) [IV-383, 6-Bromo-3-(2-(2,5-dimethyl-3-(1H-pyrazol-4-yl)piperazin-1-yl)pyrimidin-4-yl)imidazo[1,2-a]pyrazine], the Ki is 10 to 100 nM.

Turning to `CC1CCC(C)N(c2ccnc(-c3cnc4cnc(C(N)=O)cn34)n2)C1` (centres unmarked) [IV-271, 3-(4-(2,5-Dimethylpiperidin-1-yl)pyrimidin-2-yl)imidazo[1,2-a]pyrazine-6-carboxamide], the Ki is 100 to 1000 nM.

In turn, `CC(=O)N1CCN(c2nc(C)cc(-c3cnc4cnc(C(N)=O)cn34)n2)CC1` [IV-188, 3-(2-(4-Acetylpiperazin-1-yl)-6-methylpyrimidin-4-yl)imidazo[1,2-a]pyrazine-6-carboxamide] registered a Ki of 100 to 1000 nM.

Regarding `CC1CN(c2ccnc(-c3cnc4cnc(C(F)(F)F)cn34)n2)C(C)C(c2c[nH]c(C(F)(F)F)n2)N1` (single isomer, unassigned) [IV-674, 3-(4-(2,5-Dimethyl-3-(2-(trifluoromethyl)-1H-imidazol-4-yl)piperazin-1-yl)pyrimidin-2-yl)-6-(trifluoromethyl)imidazo[1,2-a]pyrazine], the Ki lay in the range of 100 to 1000 nM.

As to `CC1C(c2cn[nH]c2)OCCN1c1ccnc(-c2cnc3cnc(C#N)cn23)n1` (single isomer, unassigned) [IV-291, 3-(4-(3-Methyl-2-(1H-pyrazol-4-yl)morpholino)pyrimidin-2-yl)imidazo[1,2-a]pyrazine-6-carbonitrile], the Ki is 100 to 1000 nM.

Turning to `FC(F)(F)c1cn2c(-c3nccc(N4CCCC(c5n[nH]c(C6CCCCC6)n5)C4)n3)cnc2cn1` (centres unmarked) [IV-659, 3-(4-(3-(5-Cyclohexyl-1H-1,2,4-triazol-3-yl)piperidin-1-yl)pyrimidin-2-yl)-6-(trifluoromethyl)imidazo[1,2-a]pyrazine], the Ki fell in the range of 100 to 1000 nM.

Take `O=C(Nc1cccnc1)[C@H]1CCCN(c2ccnc(-c3cnc4cnc(C(F)(F)F)cn34)n2)C1` [IV-723]: the Ki fell in the range of 100 to 1000 nM.

Molecule `O=C(N[C@H]1CCCN(c2ccnc(-c3cnc4cnc(C(F)(F)F)cn34)n2)C1)c1cccnc1F` [IV-734] yielded a Ki of more than 1000 nM.

Staying with this test, now noted: compounds of Formula II; 280 μM ATP, 4 nM GCN2 kinase.
As for `CS(C)(=O)=NCC1CCCN(c2cc(-c3cnc4ccc(C(F)F)nn34)ncn2)C1` (centres unmarked) [II-573, (((1-(6-(6-(Difluoromethyl)imidazo[1,2-b]pyridazin-3-yl)pyrimidin-4-yl)piperidin-3-yl)methyl)imino)dimethyl-λ^6-sulfanone], the Ki lay within 10 to 1000 nM.

In turn, `CC1C(CO)CCCN1c1cc(-c2cnc3ccc(C(F)F)nn23)ncn1` (centres unmarked) [II-554, (1-(6-(6-(Difluoromethyl)imidazo[1,2-b]pyridazin-3-yl)pyrimidin-4-yl)-2-methylpiperidin-3-yl)methanol] showed a Ki of 10 to 1000 nM.

Molecule `CC(NS(C)(=O)=O)C1CCCN(c2cc(-c3cnc4ccc(C(F)F)nn34)ncn2)C1` (centres unmarked) [II-620, N-(1-(1-(6-(6-(Difluoromethyl)imidazo[1,2-b]pyridazin-3-yl)pyrimidin-4-yl)piperidin-3-yl)ethyl)methanesulfonamide] came in with a Ki of 10 to 1000 nM.

`CC(=O)N1CCN(c2cc(-c3cnc4ccc(C(=O)O)nn34)ccn2)CC1` [II-734, 3-(2-(4-acetylpiperazin-1-yl)pyridin-4-yl)imidazo[1,2-b]pyridazine-6-carboxylic acid] gave a Ki of more than 1000 nM.

In turn, `CC1C(NS(C)(=O)=O)CCCN1c1cc(-c2cnc3ccc(C(F)F)nn23)ncn1` (centres unmarked) [II-601, N-(1-(6-(6-(Difluoromethyl)imidazo[1,2-b]pyridazin-3-yl)pyrimidin-4-yl)-2-methylpiperidin-3-yl)methanesulfonamide] had a Ki of less than 10 nM.

Consider `CS(=O)(=O)NCC1CC(C#N)CN(c2cc(-c3cnc4ccc(C(F)F)nn34)ncn2)C1` (centres unmarked), for which the Ki was less than 10 nM.

On to `CCC1CC(N=S(C)(C)=O)CN(c2cc(-c3cnc4ccc(C(F)F)nn34)ncn2)C1` (single isomer, unassigned) [II-651, ((1-(6-(6-(Difluoromethyl)imidazo[1,2-b]pyridazin-3-yl)pyrimidin-4-yl)-5-ethylpiperidin-3-yl)imino)dimethyl-λ^6-sulfanone], for which the Ki was in the range of 10 to 1000 nM.

In turn, `FC(F)c1ccc2ncc(-c3ccnc(N4CCCNCC4)c3)n2n1` showed a Ki of 10 to 1000 nM.

The same test, now with this note: compounds of Formula IV; 280 μM ATP, 4 nM GCN2 kinase.
For `C[C@H]1[C@@H](c2cn[nH]c2)N(C(=O)C2CC2)[C@@H](C)CN1c1ccnc(-c2cnc3cnc(C(F)(F)F)cn23)n1` [IV-778, cyclopropyl((2R,3S,6S)-3,6-dimethyl-2-(1H-pyrazol-4-yl)-4-(2-(6-(trifluoromethyl)imidazo[1,2-a]pyrazin-3-yl)pyrimidin-4-yl)piperazin-1-yl)methanone], the IC50 was in the range of 10 to 1000 nM.
